This data set is described as follows: Slurry study evaluated by XRPD. The format is physicochemical. To be noted: slurry started from Form B; Form C occurred at 30 min; at 60 min.

Take `Cc1n[nH]c2nc(-c3ccc(NS(=O)(=O)c4cc(F)ccc4F)c(F)c3)nc(NCCN(C)C)c12` [Compound 4 Form C]: the “form conversion during slurry in THF” value is given as “converted to di-mesylate Form D completely”.

The values are drawn from patent publication US20250320215A1, “SALTS OF N-[4-(4-[[2-(DIMETHYLAMINO)ETHYL]AMINO]-3-METHYL-1H-PYRAZOLO[3,4-D]PYRIMIDIN-6-YL)-2-FLUOROPHENYL]-2,5-DIFLUOROBENZENESULFONAMIDE AND CRYSTALLINE FORMS THEREOF” (THRYV THERAPEUTICS INC, priority 2022, published 2025).
